Data reported in patent US20060276464A1, “Diarylsulfone sulfonamides and use thereof” (Wyeth, priority 2005, published 2006).
Read-outs that look alike come from different tables or passages of the source.

Target: T1, SFRP-1 (Homo sapiens, UniProt Q8N474)
T1 sequence (Q8N474 32-314): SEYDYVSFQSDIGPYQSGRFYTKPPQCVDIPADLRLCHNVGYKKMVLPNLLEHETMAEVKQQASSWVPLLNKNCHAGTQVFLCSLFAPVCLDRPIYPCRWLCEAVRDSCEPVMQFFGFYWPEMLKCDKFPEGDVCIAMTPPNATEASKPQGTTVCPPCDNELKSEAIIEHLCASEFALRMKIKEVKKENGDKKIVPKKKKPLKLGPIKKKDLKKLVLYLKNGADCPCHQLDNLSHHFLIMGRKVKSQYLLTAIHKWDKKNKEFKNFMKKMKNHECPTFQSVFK
Experiment: Cell-based assay for in vitro measurement of SFRP-1/SARP2 antagonist activity (U2OS cells co-transfected with 16x TCF-tk-Luciferase reporter, Wnt and hSFRP-1);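 further: U2OS cells co-transfected with a TCF-tk luciferase reporter, a Wnt vector, hSFRP-1 or empty vector and CMV-βgal, luciferase luminescence read in cell lysates alongside βgal activity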
Settings: for fold induction at 15 µM / fold induction at 30 µM / fold induction at 10 µM / fold induction at 20 µM: U2OS; for fold induction at 10 µM: read-out: Fold Induction with SFRP-1, U2OS cells, single dose 10 μM, luciferase reporter, fold induction over SFRP-1 control

[1] = read-out: Fold Induction with SFRP-1, Conc 15 μM, with SFRP-1, fold induction over SFRP-1 control, single dose
[2] = read-out: Fold Induction without SFRP-1, Conc 15 μM, without SFRP-1, single dose
[3] = read-out: Fold Induction with SFRP-1, Conc 30 μM, with SFRP-1, fold induction over SFRP-1 control, single dose
[4] = read-out: Fold Induction without SFRP-1, Conc 30 μM, without SFRP-1, single dose
[5] = read-out: Fold Induction with SFRP-1, Conc 15 μM, single dose, luciferase reporter, fold induction over SFRP-1 control, cells with SFRP-1
[6] = read-out: Fold Induction without SFRP-1, Conc 15 μM, single dose, luciferase reporter, cells without SFRP-1 (specificity control)
[7] = read-out: Fold Induction with SFRP-1, Conc 20 μM, with SFRP-1, fold induction over SFRP-1 control, single dose
[8] = read-out: Fold Induction without SFRP-1, Conc 20 μM, without SFRP-1, single dose

| Compound | fold induction at 15 µM [1] | fold induction at 15 µM [2] | further results |
| --- | --- | --- | --- |
| COc1ccc(S(=O)(=O)c2ccccc2)cc1S(=O)(=O)NCCc1ccncc1 [Example 235, 2-methoxy-5-(phenylsulfonyl)-N-(2-pyridin-4-ylethyl)benzenesulfonamide] | 1.2 | 0.9 |  |
| COCCNS(=O)(=O)c1cccc(S(=O)(=O)c2ccccc2)c1 [Example 197, N-(2-methoxyethyl)-3-(phenylsulfonyl)benzenesulfonamide] |  |  | fold induction at 30 µM [3]: 1.1; fold induction at 30 µM [4]: 1.2 |
| Cc1ccc(S(=O)(=O)c2ccccc2-c2ccccc2)cc1S(=O)(=O)NCCc1ccccn1 [Example 432, 5-(biphenyl-2-ylsulfonyl)-2-methyl-N-(2-pyridin-2-ylethyl)benzenesulfonamide] | 1.9 | 0.9 |  |
| Cc1ccc(S(=O)(=O)c2ccc(NC3CCCCC3)cc2)cc1S(=O)(=O)NCCCn1ccnc1 [Example 352, 5-{[4-(cyclohexylamino)phenyl]sulfonyl}-N-[3-(1H-imidazol-1-yl)propyl]-2-methylbenzenesulfonamide] | 1.7 | 1 |  |
| C#CCN(CCc1ccccc1F)S(=O)(=O)c1cc(S(=O)(=O)c2ccc(C)cc2)ccc1C [Example 277, N-[2-(2-fluorophenyl)ethyl]-2-methyl-5-[(4-methylphenyl)sulfonyl]-N-prop-2-ynylbenzenesulfonamide] | 1.8 | 1 |  |
| Cc1ccc(S(=O)(=O)c2ccc(F)cc2)cc1S(=O)(=O)NC1CCN(C(=O)OC(C)(C)C)CC1 [Example 789, tert-butyl 4-[({5-[(4-fluorophenyl)sulfonyl]-2-methylphenyl}sulfonyl)amino]piperidine-1-carboxylate] |  |  | fold induction at 10 µM: 1.5 |
| CCCNS(=O)(=O)c1cc(S(=O)(=O)c2ccccc2)ccc1C [Example 394, 2-methyl-5-(phenylsulfonyl)-N-propylbenzenesulfonamide] | 1.5 | 1 |  |
| Cc1ccc(S(=O)(=O)c2ccc(N3CCCC3)cc2)cc1S(=O)(=O)NCCCn1ccnc1 [Example 305, N-[3-(1H-imidazol-1-yl)propyl]-2-methyl-5-[(4-pyrrolidin-1-ylphenyl)sulfonyl]benzenesulfonamide] | 1.8 | 1 |  |
| Cc1ccc(C(=O)NCCNS(=O)(=O)c2cc(S(=O)(=O)c3ccccc3)ccc2C(F)(F)F)cc1 [Example 775, 4-Methyl-N-[2-({[5-(phenylsulfonyl)-2-(trifluoromethyl)phenyl]sulfonyl}amino)ethyl]benzamide] |  |  | fold induction at 10 µM: 1.3 |
| COc1ccc(S(=O)(=O)c2ccccc2)cc1S(=O)(=O)NCCc1c[nH]cn1 [Example 236, N-[2-(1H-imidazol-4-yl)ethyl]-2-methoxy-5-(phenylsulfonyl)benzenesulfonamide] | 1.2 | 1 |  |
| COc1ccc(CCN(C)S(=O)(=O)c2cc(S(=O)(=O)c3ccccc3)ccc2C)cc1OC [Example 272, N-[2-(3,4-dimethoxyphenyl)ethyl]-N,2-dimethyl-5-(phenylsulfonyl)benzenesulfonamide] | 0.9 | 1 |  |
| CCc1ccc(S(=O)(=O)c2ccccc2)cc1S(=O)(=O)N(C)CCc1ccccc1 [Example 284, 2-ethyl-N-methyl-N-(2-phenylethyl)-5-(phenylsulfonyl)benzenesulfonamide] | 1.1 | 1.2 |  |
| Cc1ccc(S(=O)(=O)c2ccccc2)cc1S(=O)(=O)NCCC1CCCN1C (stereo not drawn) [Example 207, 2-methyl-N-[2-(1-methylpyrrolidin-2-yl)ethyl]-5-(phenylsulfonyl)benzenesulfonamide] | 2.3 | 1.1 |  |
| CC(C)c1ccc(S(=O)(=O)c2ccc(F)cc2)cc1S(=O)(=O)NC1CCCCC1 [Example 524, N-cyclohexyl-5-[(4-fluorophenyl)sulfonyl]-2-isopropylbenzenesulfonamide] |  |  | fold induction at 15 µM [5]: 1.4; fold induction at 15 µM [6]: 1 |
| CCc1ccc(S(=O)(=O)c2ccccc2)cc1S(=O)(=O)NCCc1ccccc1F [Example 147, 2-ethyl-N-[2-(2-fluorophenyl)ethyl]-5-(phenylsulfonyl)benzenesulfonamide] | 3.2 | 1 |  |
| Cc1ccc(S(=O)(=O)c2ccccc2)cc1S(=O)(=O)NCCc1ccccc1Cl [Example 31, N-[2-(2-chlorophenyl)ethyl]-2-methyl-5-(phenylsulfonyl)benzenesulfonamide] |  |  | fold induction at 30 µM [3]: 0.4; fold induction at 30 µM [4]: 0.5 |

| Compound | fold induction at 15 µM [1] | fold induction at 15 µM [2] | further results |
| --- | --- | --- | --- |
| COc1ccccc1CCNS(=O)(=O)c1cc(S(=O)(=O)c2ccccc2)ccc1C [Example 32, N-[2-(2-methoxyphenyl)ethyl]-2-methyl-5-(phenylsulfonyl)benzenesulfonamide] |  |  | fold induction at 30 µM [3]: 0.5; fold induction at 30 µM [4]: 0.5 |
| O=S(=O)(NC(CO)CO)c1cc(S(=O)(=O)c2ccccc2)ccc1Cl [Example 675, 2-chloro-N-[2-hydroxy-1-(hydroxymethyl)ethyl]-5-(phenylsulfonyl)benzenesulfonamide] |  |  | EC50: 41.5 µM; fold induction at 10 µM: 1.7 |
| COC(=O)c1ccc(CNS(=O)(=O)c2cc(S(=O)(=O)c3ccccc3)ccc2C(C)C)cc1 [Example 951, methyl 4-[({[2-isopropyl-5-(phenylsulfonyl)phenyl]sulfonyl}amino)methyl]benzoate] |  |  | fold induction at 10 µM: 1.8 |
| O=S(=O)(NCCN1CCCCC1)c1cccc(S(=O)(=O)c2ccccc2)c1 [Example 188, 3-(phenylsulfonyl)-N-(2-piperidin-1-ylethyl)benzenesulfonamide] |  |  | fold induction at 30 µM [3]: 1.4; fold induction at 30 µM [4]: 1.4 |
| O=S(=O)(NC1CCNCC1)c1cc(S(=O)(=O)c2ccccc2)ccc1Cl [Example 624, 2-chloro-5-(phenylsulfonyl)-N-piperidin-4-ylbenzenesulfonamide] |  |  | fold induction at 15 µM [5]: 2.7; fold induction at 15 µM [6]: 1.2 |
| O=S(=O)(NCCc1ccc(Br)cc1)c1cc(S(=O)(=O)c2ccccc2)ccc1C(F)(F)F [Example 960, N-[2-(4-bromophenyl)ethyl]-5-(phenylsulfonyl)-2-(trifluoromethyl)benzenesulfonamide] |  |  | fold induction at 10 µM: 1.4 |
| Cc1ccc(S(=O)(=O)c2ccccc2)cc1S(=O)(=O)NCCC(N)=O [Example 203, N^3-{[2-methyl-5-(phenylsulfonyl)phenyl]sulfonyl}-beta-alaninamide] | 2.5 | 1.3 |  |
| CCc1ccc(S(=O)(=O)c2ccccc2)cc1S(=O)(=O)NC1CCOCC1 [Example 300, 2-ethyl-5-(phenylsulfonyl)-N-tetrahydro-2H-pyran-4-ylbenzenesulfonamide] | 3.4 | 1.2 |  |
| CCc1ccc(S(=O)(=O)c2ccccc2)cc1S(=O)(=O)NCCC1CCOCC1 [Example 301, 2-ethyl-5-(phenylsulfonyl)-N-(2-tetrahydro-2H-pyran-4-ylethyl)benzenesulfonamide] | 3.3 | 1.2 |  |
| COc1ccc(Br)cc1CCNS(=O)(=O)c1cc(S(=O)(=O)c2ccc(F)cc2)ccc1C [Example 30, N-[2-(5-bromo-2-methoxyphenyl)ethyl]-5-[(4-fluorophenyl)sulfonyl]-2-methylbenzenesulfonamide] | 2.4 | 0.9 | Fold Induction with SFRP-1 (Conc 30 μM, with SFRP-1, fold induction over SFRP-1 control, single dose): 1 fold; fold induction at 30 µM [3]: 1.7 |
| O=S(=O)(NCCc1ccccn1)c1cc(S(=O)(=O)c2ccc(F)cc2)ccc1C1CCCCC1 [Example 460, 2-cyclohexyl-5-[(4-fluorophenyl)sulfonyl]-N-(2-pyridin-2-ylethyl)benzenesulfonamide] | 1.1 | 1 |  |
| Cc1ccc(S(=O)(=O)c2ccccc2)cc1S(=O)(=O)NCCCc1ccccc1 [Example 244, 2-methyl-N-(3-phenylpropyl)-5-(phenylsulfonyl)benzenesulfonamide] | 1.3 | 1.1 |  |
| Cc1ccc(S(=O)(=O)c2ccc(Cl)cc2)cc1S(=O)(=O)N[C@H]1C[C@@H]1c1ccccc1 [Example 256, 5-[(4-chlorophenyl)sulfonyl]-2-methyl-N-[(1S,2R)-2-phenylcyclopropyl]benzenesulfonamide] |  |  | fold induction at 20 µM [7]: 1.2; fold induction at 20 µM [8]: 1 |
| CCN(CC)CCCNS(=O)(=O)c1cc(S(=O)(=O)c2ccccc2)ccc1OC [Example 241, N-[3-(diethylamino)propyl]-2-methoxy-5-(phenylsulfonyl)benzenesulfonamide] | 1.8 | 1.1 |  |
| Cc1ccc(S(=O)(=O)c2ccc(C)c(S(=O)(=O)NC[C@H](C)c3ccccc3)c2)cc1 [Example 254, 2-methyl-5-[(4-methylphenyl)sulfonyl]-N-[(2R)-2-phenylpropyl]benzenesulfonamide] |  |  | fold induction at 20 µM [7]: 3; fold induction at 20 µM [8]: 1 |
